Source: patent US20090062150A1, “COMPOSITIONS AND METHODS FOR REGULATING INTRAMEMBRANE PROTEASES” (priority 2006, published 2009)

How the values were obtained:
[1] = biological target: T1, truncated GlpG transmembrane core domain (Escherichia coli, UniProt P09391); test: In vitro protease activity assay of GlpG core domain; type: biochemical, E. coli; conditions: for inhibition of GlpG by other detergents: wide range of concentrations up to several times their CMCs, data not shown
T1 construct: The transmembrane core domain of GlpG (residues 87-276) was purified as described previously; made in house
T1 sequence (P09391 87-276): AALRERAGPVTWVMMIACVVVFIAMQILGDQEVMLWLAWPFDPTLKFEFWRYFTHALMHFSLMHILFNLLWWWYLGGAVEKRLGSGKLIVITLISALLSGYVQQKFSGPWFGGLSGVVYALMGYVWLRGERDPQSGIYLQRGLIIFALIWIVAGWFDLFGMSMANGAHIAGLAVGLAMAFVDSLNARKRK
Protocol: Structural characterization of E. coli rhomboid protease, GlpG, was carried out using an N-terminally truncated GlpG transmembrane core domain (residues 87-276). In vitro characterization of the enzymatic activity of the truncated GlpG was reconstituted to validate the use of the GlpG core domain for crystallographic studies was carried out using two separate assays. Proteolytic activity of purified truncated GlpG core domain on an artificial protein substrate in detergent micelles was analyzed at 37° C. […] Proteolytic activity of purified truncated GlpG core domain was also compared with full length GlpG using C100-Spitz-Flag as substrate.
Combinatorial library technology provides an efficient way of testing a potentially vast number of different substances for their ability to modulate the activity of a rhomboid protease. In some embodiments, test substances may be screened for their ability to interact with the rhomboid protease in an enzymatic assay. For example, in one such enzymatic assay an artificial protein substrate, such as, for example, a membrane: associated protein, such as, CED-4, or C100-Spitz-Flag may be contacted with a rhomboid protease, such as GlpG. Cleavage products may then be analyzed by, for example, sodium dodecyl-sulfate polyacrylamide gel electrophoresis (SDS-PAGE). A test substance may be added to such an enzymatic, assay as a separate component, and modulation of the enzymatic activity of the rhomboid protease may be apparent by a reduction or enhancement of the amount or type of cleavage product. The modulation of activity may be indicative of binding of the test substance to the rhomboid protease.
The proteolytic activity of GlpG was examined as described by Wu et al.

[2] = biological target: T1, truncated GlpG transmembrane core domain; conditions: qualitative statement, no data shown; cited from earlier work
rhomboid protease = conditions: qualitative statement; cited from earlier work

Structure (SMILES)	inhibition of GlpG by other detergents [1]	inhibition of rhomboid activity (rhomboid protease)	specificity for rhomboid (rhomboid protease)	further results
CCCCCCCCOCCOCCOCCOCCO [C8E4, tetraethyleneglycol monooctyl ether]	–	–	–	inhibition of enzymatic activity on artificial substrate ([1]; at concentrations above its critical micelle concentration (CMC), artificial substrate, FIG. 4A left panel): inhibit enzymatic activity; inhibition of proteolysis of C100-Spitz-Flag ([1]; substrate C100-Spitz-Flag, FIG. 4A right panel): inhibition is also observed
CCCCCCCCCCCC[N+](C)(C)[O-] [LDAO]	no inhibition	–	–	–
CCCCCCCCCO[C@@H]1O[C@H](CO)[C@@H](O)[C@H](O)[C@H]1O [nonyl glucoside]	no inhibition	–	–	–
O=c1oc(Cl)c(Cl)c2ccccc12 [DCI, Dichloroisocoumarin]	–	inhibit rhomboid activity	lack specificity	inhibition of GlpG [2]: relatively potent inhibition
Cc1ccc(S(=O)(=O)N[C@@H](Cc2ccccc2)C(=O)CCl)cc1 [TPCK]	–	inhibit rhomboid activity	lack specificity	–
